These are literature values, as cited in patent publication US20040018260A1, “Novel botanical extract of Tripterygium Wilfordii Hook F” (Novemed Group Limited, priority 2002, published 2004).

The conditions of data set [1]: in vitro and animal experiments; results called inconclusive.
The conditions of data set [2]: in vitro and animal experiments; results called inconclusive. This is another data set of the same source.
The conditions of data set [3]: reported.

Structures are written as SMILES. Entries after “also recorded” stand apart in the source; their conditions may differ.

Take `CC(C)[C@]12O[C@H]1[C@@H]1O[C@@]13[C@@]1(C)CCC4=C(COC4=O)[C@@H]1C[C@@H]1O[C@@]13C2=O` [T7, Triptonide]: in data set [1], the immunosuppressive activity entry was “relatively low activities”. Besides, the anti-inflammatory activity result in data set [2] is given as “relatively low activities”.

For `CC(C)[C@]12O[C@H]1[C@@H]1O[C@]13[C@]1(O[C@H]1C[C@H]1C4=C(CC[C@@]13C)C(=O)OC4)[C@@H]2O` [T10, triptolide], the carcinogenic or mutagenic result in data set [3] is given as “potently carcinogenic or mutagenic; also recorded: carcinogenic”. Further, the immunosuppressive activity result in data set [1] is “most abundant and active compound”. In addition, in data set [2], the anti-inflammatory activity entry was “most abundant and active compound”.

As to `CC(C)[C@]1(O)[C@H](O)[C@@H]2O[C@]23[C@]2(O[C@H]2C[C@H]2C4=C(CC[C@@]23C)C(=O)OC4)[C@@H]1O` [T11, tripriolide], the immunosuppressive activity result in data set [1] is reported as “little immunosuppressive activity”. Further, the anti-inflammatory activity result in data set [2] is “highest anti-inflammatory activity”.
